Source: article PMC9400670, “Establishing the selective phospholipid membrane coordination, permeation and lysis properties for a series of ‘druggable’ supramolecular self-associating antimicrobial amphiphiles” (Chemical Science, 2022)
pEC50: −log10 of the molar value. Read-outs that look alike come from different tables or passages of the source.

Experiments:
PE:PG mix nanodiscs = assay: Phospholipid nanodisc 1H NMR CPMG coordination assay, PE:PG mix nanodiscs; assay type: binding; details: SSA 100 µM
Description: (§1) Finally, to establish how any single SSA structural variation affects the coordination of an individual salt component to the surface of a phospholipid membrane, the binding of the anionic and cationic components of SSAs 5–12 with nanodiscs comprised of PC, PG or the PE : PG mix (Table 2) was studied. Nanodiscs were synthesised from synthetic vesicles of the relevant phospholipid composition. For full synthetic procedures and nanodisc characterisation please see ESI (Section 13). ^†[34,35]
(§2) Styrene-maleic acid (SMA) nanodiscs are small biomimetic scaffolds with a hydrodynamic diameter ≈ 10 nm. They consist of a single disc-shaped planar phospholipid bilayer, ‘belted’ in this instance with a synthetic SMA co-polymer. Here nanodiscs of a specific phospholipid composition were titrated against a solution of SSAs 5–12 (0.10 mM) in a sodium phosphate buffer (20 mM) with NaCl (20 mM) at pH 7.4. This solution was supplemented with 5% D2O, to enable NMR locking and 4,4-dimethyl4-silapentane-1-sulfonic acid (DSS – 0.02 mM) to act as an internal standard. The nanodiscs were then titrated against the SSA, while the SSA concentration was maintained as constant, well below the CMC (Table 3).[38] A 1D ^1H NMR with a Carr–Purcell–Meiboom–Gill sequence (CPMG) filter (300 ms),[36,48] modified with a watergate element was then obtained for each experimental data point. The watergate element was used to allow suppression of the water signal, whereas the CPMG filter enabled the suppression of those resonances from molecular species with long correlation times, which in this instance correlate to the signals of those SSAs coordinated to the nanodisc, rather than those which exist as free species in solution. Comparative integration of the resonances corresponding to the SSA cation or anion, standardised against the DSS internal standard, permits the percentage of the individual SSA components coordinated to the phospholipid nanodisc to be established with respect to increasing nanodisc concentration.
(§3) However, when considering the 1/EC50 for the SSA cationic component (Fig. 10b), the reverse is true. This is perhaps expected, but nevertheless despite the identical experimental conditions, including the same TBA counter cation across SSAs 5–12, there is a marked difference in the 1/EC50 obtained, where the only difference is the SSA anion present. This is most noticeable for the series of SSA titrations involving the PE : PG mix (Table 2) nanodiscs. The only variation within this set of titrations is the structure of the SSA anion; we therefore conclude that the SSA anion is influencing SSA cation nanodisc coordination events. This observation provides evidence for the presence of further complex interactions informing SSA:nanodisc coordination processes. […]
(§4) Data were acquired in endpoint mode. All experiments were repeated in triplicate […]
(§5) Nanodisc preparation: Lipid films were resuspended in Buffer (20 mM NaCl, 20 mM NaH 2PO4, pH 7.4) and sonicated for 1 hour, at a 5:1 ratio, SMA was added and incubated at 37 °C for 1 hour. Dialysed overnight in 5 L of the same buffer in 10 KDa cut-off dialysis tubing, concentrated, and underwent gel filtration size exclusion chromatography on a Superdex 200 10/300 GL column (GE Healthcare) in the same buffer, whilst monitoring absorbance at 260 nm. Nanodisc quantification carried out via monitoring of absorbance at 260 nm using a calibration curve.2
(§6) 1H NMR CPMG: 1H NMR CPMG3,4 spectra were obtained with a Bruker Avance III […] spectrometer equipped with a TCIP cryoprobe at 298 K. Samples were supplemented with 5 % D 2O and 0.02 mM 4,4-dimethyl4-silapentane-1-sulfonic acid (DSS). The standard zgprcpmg pulse sequence from the Bruker library was modified with a watergate element to allow suppressi on of the water signal and was used for all experiments. Although this sequence is readily obtainable, we are happy to provide it on request. The P1 pulses were 9 µs at a power of 7.9 W. Presaturation was applied between […]

[1] = test system: E. coli total lipid vesicles; assay: Synthetic phospholipid vesicle membrane binding assay (fluorescence polarisation), E. coli total vesicles; details: lipid vesicles added to SSA (0.15 mM); n = 3; error = standard error; SSA alone set to 100 mP
Method: (§7) For intrinsically fluorescent SSAs 5, 6 and 8–12, FP titration experiments enabled the observation of SSA: phospholipid vesicle interactions. Here, an increase in FP value indicates an increase in the apparent size of the SSA as it interacts with the phospholipid vesicle. […]
(§8) Fluorescence polarisation: Lipid films were resuspended in Buffer (150 mM KCl, 10 mM HEPES, pH 7.4, 2 mM EGTA) and subjected to 9 freeze-thaw cycles in liquid nitrogen and extruded 20 times through a 200 nm polycarbonate membrane. Black bottom 96-well plates were prepared by serially diluting desired vesicle solution across the plate, the appropriate SSA solution (100 µL, 0.15 mM) was added to each well to give a total well volume of 200 µL. Fluorescent SSA solutions were set to a FP value of 100 mP. Data were acquired in endpoint mode. […]

[2] = test system: E. coli polar lipid vesicles; assay: Synthetic phospholipid vesicle membrane binding assay (fluorescence polarisation), E. coli polar vesicles; details: lipid vesicles added to SSA (0.15 mM); n = 3; error = standard error; SSA alone set to 100 mP
Method: as §7, §8

PG lipid vesicles = assay: Synthetic phospholipid vesicle membrane binding assay (fluorescence polarisation), PG vesicles; details: lipid vesicles added to SSA (0.15 mM); n = 3; error = standard error; SSA alone set to 100 mP
Method: as §7, §8

PC nanodiscs = assay: Phospholipid nanodisc 1H NMR CPMG coordination assay, PC nanodiscs; assay type: binding; details: SSA 100 µM
Description: as §1, §2, §3, §4, §5, §6

PE-PG mix lipid vesicles = assay: Synthetic phospholipid vesicle membrane binding assay (fluorescence polarisation), PE-PG mix vesicles; details: lipid vesicles added to SSA (0.15 mM); n = 3; error = standard error; SSA alone set to 100 mP
Method: as §7, §8

E. coli DH10B = details: cited from earlier work; for MIC50 E. coli: E. coli DH10B, n = 3, 0.5 McFarland standard, number in bracket = efficacy rank
[3] = concentration of nanodisc coordinating 50 % of the SSA anion, Hill Plot fit, Vmax fixed 100 %, read-out: EC50 PE:PG mix, anionic SSA component
[4] = concentration of nanodisc coordinating 50 % of the SSA cation, Hill Plot fit, Vmax fixed 100 %, read-out: EC50 PE:PG mix, cationic SSA component
[5] = concentration of nanodisc coordinating 50 % of the SSA anion, Hill Plot fit, Vmax fixed 100 %, read-out: EC50 PC, anionic SSA component
[6] = experimental endpoint 4.00 µM nanodisc, read-out: EC50 PC, cationic SSA component

Row | Compound | pEC50 (PE:PG mix nanodiscs; [3]) | pEC50 (PE:PG mix nanodiscs; [4]) | increase in FP, PG (PG lipid vesicles) [mP] | pEC50 (PC nanodiscs; [5]) | increase in FP, PE-PG mix (PE-PG mix lipid vesicles) [mP] | pEC50 (PC nanodiscs; concentration of nanodisc coordinating 50 % of the SSA cation, Hill Plot fit, Vmax fixed 100 %, read-out: EC50 PC, cationic SSA component) | pEC50 (PC nanodiscs; [6]) | pEC50 (PE:PG mix nanodiscs; experimental endpoint 4.00 µM nanodisc, read-out: EC50 PE:PG mix, cationic SSA component) | increase in FP, E. coli total [1] [mP] | increase in FP, E. coli polar [2] [mP] | MIC50 E. coli (E. coli DH10B; after 900 min) | initial antimicrobial screening, inhibition of growth, E. coli (E. coli DH10B; 3.3 mM, after 900 min) | initial antimicrobial screening outcome, E. coli (E. coli DH10B; Table S3, screening at 3.3 mM)
1 | O=C(NCS(=O)(=O)O)Nc1ccc(C(F)(F)F)cc1 [SSA 1] |  |  |  |  |  |  |  |  |  |  | 3.85(7) mM |  | 
2 | O=C(NCS(=O)(=O)O)Nc1ccccc1-c1nc2ccccc2s1 [SSA 5] | 5.94 | 6.03 | 43 ± 9 |  | 36 ± 3 |  |  |  | 32 ± 3 | 40 ± 4 | 3.57(5) mM |  | 
3 | Cc1ccc2nc(NC(=O)NCS(=O)(=O)O)sc2c1 [SSA 7] |  | 5.46 |  |  |  |  |  |  |  |  |  |  | 
4 | O=C(NCCCS(=O)(=O)O)Nc1ccc(C(F)(F)F)cc1 [SSA 2] |  |  |  |  |  |  |  |  |  |  | 1.48(3) mM |  | 
5 | O=C(NCS(=O)(=O)O)Nc1ccc(C(F)(F)F)cc1 [SSA 3] |  |  |  |  |  |  |  |  |  |  |  | ^c (SSA did not pass initial antimicrobial screening, exhibited <10% inhibition of growth at 3.3 mM after 900 min and therefore excluded from further study) | Fail
6 | O=C(O)CNC(=O)Nc1ccc(C(F)(F)F)cc1 [SSA 4] |  |  |  |  |  |  |  |  |  |  | 1.25(2) mM |  | 
7 | Cc1ccc2nc(-c3ccc(NC(=O)NCS(=O)(=O)O)cc3)sc2c1 [SSA 6] | 6.34 |  | 40 ± 4 | 6.44 | 9 ± 1 |  |  | < 5.40 | 20 ± 1 | 35 ± 3 | 5.02(8) mM |  | 

Now from value to compound, other results behind:

Row | pEC50 (PE:PG mix nanodiscs; [3]) | pEC50 (PE:PG mix nanodiscs; [4]) | increase in FP, PG (PG lipid vesicles) [mP] | pEC50 (PC nanodiscs; [5]) | increase in FP, PE-PG mix (PE-PG mix lipid vesicles) [mP] | pEC50 (PC nanodiscs; concentration of nanodisc coordinating 50 % of the SSA cation, Hill Plot fit, Vmax fixed 100 %, read-out: EC50 PC, cationic SSA component) | pEC50 (PC nanodiscs; [6]) | pEC50 (PE:PG mix nanodiscs; experimental endpoint 4.00 µM nanodisc, read-out: EC50 PE:PG mix, cationic SSA component) | Compound | increase in FP, E. coli total [1] [mP] | increase in FP, E. coli polar [2] [mP] | MIC50 E. coli (E. coli DH10B; after 900 min) | initial antimicrobial screening, inhibition of growth, E. coli (E. coli DH10B; 3.3 mM, after 900 min) | initial antimicrobial screening outcome, E. coli (E. coli DH10B; Table S3, screening at 3.3 mM)
8 | 6.14 | 5.60 | 209 ± 4 | 6.31 | 45 ± 2 |  |  |  | Cc1ccc2nc(-c3ccc(NC(=O)NCC(=O)O)cc3)sc2c1 [SSA 11] | 66 ± 4 | 79 ± 1 |  |  | 
9 | 6.59 | 6.43 | 126 ± 5 | 6.85 | 107 ± 3 | 5.65 |  |  | Cc1ccc2nc(-c3ccc(NC(=S)NCS(=O)(=O)O)cc3)sc2c1 [SSA 12] | 199 ± 5 | 176 ± 2 |  |  | 
10 | 6.30 | 5.53 | 29 ± 2 | 6.44 | 21 ± 2 |  | < 5.40 |  | Cc1ccc2nc(-c3ccc(NC(=O)NCCCS(=O)(=O)O)cc3)sc2c1 [SSA 10] | 15 ± 2 | 25 ± 14 |  |  | 
11 | 6.14 |  | 47 ± 1 | 6.57 | 35 ± 2 |  | < 5.40 |  | Cc1ccc2nc(-c3ccc(NC(=O)NCCC(=O)O)cc3)sc2c1 [SSA 9] | 130 ± 5 | 53 ± 3 |  |  | 
12 | 5.66 |  | 29 ± 1 | 5.58 | 32 ± 1 |  |  |  | O=C(NCS(=O)(=O)O)Nc1ccc(-c2nc3ccccc3s2)cc1 [SSA 8] | 24 ± 3 | 27 ± 2 |  |  | 
